Test results from US20220280594A1, “APPLICATION OF POLYPEPTIDE OR DERIVATIVE THEREOF” (CHENGDU HUITAI BIOMEDICINE CO., LTD., priority 2019, published 2022).
Ends that are not written are not given here. PEG = not defined here

What was measured:
[1] = tested on: human non-small cell lung cancer cells (A549); assay: scratch assay, migration of A549 cells; type: cell-based; conditions: A549, 10 μM, 48 hours; control group 75.31 ± 8.19
Procedure: (§1) In the scratch assay, the cell migration rate was negatively correlated with the inhibitory effect of the drug component on tumor cell migration ability. The cell migration inhibition experiment was described as follows: tumor cells were cultured in vitro, cells in logarithmic growth phase were collected and seeded evenly in a 24-well plate at a density of 1-2×10^5 cells/well; the cells were cultured in a cell incubator until a monolayer was formed; a scratch tool was used to make a “-” (straight) scratch on the monolayer of cells; the cells were washed 1-3 times with PBS, and a medium (with 2% fetal bovine serum) containing specific test components was added to the culture. Experimental grouping: PBS control group; polypeptide or derivative thereof treatment group (N1-N54), 10 μM. Three independent parallel wells were set up in each group, and the cells were cultured continuously in a cell incubator for 48 hours. […] At least 3 representative images for each well were taken. ImageJ software was used to count the migration distance of the cells, and the cell migration rate was calculated as: cell migration rate (%)=(width of original scratch−width of current scratch)/width of original scratch×100.
This example was a scratch assay to evaluate the inhibitory effect of the polypeptide or derivative thereof (N1-N54) on the migration ability of human non-small cell lung cancer (A549). The experimental method was as described in Example 2.

[2] = tested on: human lung cancer cells (95D); assay: scratch assay, migration of 95D cells; type: cell-based; conditions: 10 μM, 48 hours, control group 55.3 ± 3.19
Procedure: as §1
This example was a scratch assay to evaluate the inhibitory effect of the polypeptide or derivative thereof (N1-N54) on the migration ability of human lung cancer cells (95D). The experimental method was as described in Example 2.

[3] = tested on: human lung squamous carcinoma cells (NCI-H226); assay: scratch assay, migration of NCI-H226 cells; type: cell-based; conditions: NCI-H226, 10 μM, 48 hours; control group 65.31 ± 3.19
Procedure: as §1
This example was a scratch assay to evaluate the inhibitory effect of the polypeptide or derivative thereof (N1-N54) on the migration ability of human lung squamous carcinoma cells (NCI-H226). The experimental method was as described in Example 2.

[4] = tested on: human lung cancer cells (A549) subcutaneous xenograft; assay: lung cancer subcutaneous xenograft animal model, intravenous injection; type: in vivo, mice (BALB/c-nu/nu); conditions: intravenous 60 mg/kg once every other day, 20 days; for Weight of tumor (g) (mean ± SD): control 2.53 ± 0.17; for Volume of tumor (mm^3) (mean ± SD): control 3373.26 ± 581.44
Procedure: Experimental animals: 4-6 weeks old female immunodeficiency mice (BALB/c-nu/nu, Beijing Vital River Laboratory Animal Technology Co., Ltd.).
Subcutaneous xenograft animal model. The number of cells inoculated subcutaneously vin mice was about 2×10^6/200 μL. When the volume of the subcutaneous tumor was greater than 100 mm^3, the mice were randomly divided into groups and subjected to treatment. When the mass volume of the tumors in model control group reached 2000 mm^3 or the animal dies, the treatment ended. The animals were dissected, the tumors were taken out, and the weight and volume of the tumors were measured. During the period of the entire experiment, the mice were observed and the body weight was measured every other day.
The method used in the efficacy test on the lung cancer subcutaneous xenograft animal model was as described in Example 5. The lung cancer cells were the human lung cancer cells (A549), and the route of administration was intravenous injection. This example involved a total of 3 experiments to evaluate N1-N15, N16-N30, and N31-N54 respectively. The experimental procedure, route of administration, dosage and frequency of administration, and detection method were all consistent in the three experiments. The experimental groups were model control group and polypeptide or derivative thereof treatment groups (N1-N15, N16-N30, or N31-N54). The drug dosage of the N1-N54 treatment groups was 60 mg/kg, and the treatment time was 20 days.

[5] = tested on: human liver cancer cells (HepG2); assay: scratch assay, migration of HepG2 cells; type: cell-based; conditions: HepG2, 10 μM, 48 hours; control group 71.01 ± 6.63
Procedure: as §1
This example was a scratch assay to evaluate the inhibitory effect of the polypeptide or derivative thereof (N1-N54) on the migration ability of human liver cancer cells (HepG2). The experimental method was as described in Example 2.

[6] = tested on: human breast cancer cells (MDA-MB-231); assay: scratch assay, migration of MDA-MB-231 cells; type: cell-based; conditions: MDA-MB-231, 10 μM, 48 hours; control group 36.19 ± 5.15
Procedure: as §1
This example was a scratch assay to evaluate the inhibitory effect of the polypeptide or derivative thereof (N1-N54) on the migration ability of human breast cancer cells (MDA-MB-231). The experimental method was as described in Example 2.

[7] = tested on: human breast cancer cells (MCF-7); assay: scratch assay, migration of MCF-7 cells; type: cell-based; conditions: MCF-7, 10 μM, 48 hours; control group 30.97 ± 1.79
Procedure: as §1
This example was a scratch assay to evaluate the inhibitory effect of the polypeptide or derivative thereof (N1-N54) on the migration ability of human breast cancer cells (MCF-7). The experimental method was as described in Example 2.

[8] = tested on: human melanoma cells (A375); assay: scratch assay, migration of A375 cells; type: cell-based; conditions: A375, 10 μM, 48 hours; control group 44.03 ± 6.21
Procedure: as §1
This example was a scratch assay to evaluate the inhibitory effect of the polypeptide or derivative thereof (N1-N54) on the migration ability of human melanoma cells (A375). The experimental method was as described in Example 2.

[9] = tested on: human pharyngeal squamous-cell carcinoma cells (Fadu); assay: scratch assay, migration of Fadu cells; type: cell-based; conditions: 10 μM, 48 hours, control group 28.76 ± 4.08
Procedure: as §1
This example was a scratch assay to evaluate the inhibitory effect of the polypeptide or derivative thereof (N1-N54) on the migration ability of human pharyngeal squamous-cell carcinoma cells (Fadu). The experimental method was as described in Example 2.

[10] = tested on: human colon cancer cells (HCT-116); assay: scratch assay, migration of HCT-116 cells; type: cell-based; conditions: HCT-116, 10 μM, 48 hours; control group 47.78 ± 6.07
Procedure: as §1
This example was a scratch assay to evaluate the inhibitory effect of the polypeptide or derivative thereof (N1-N54) on the migration ability of human colon cancer cells (HCT-116). The experimental method was as described in Example 2.

[11] = tested on: human prostate cancer cells (22RV1); assay: scratch assay, migration of 22RV1 cells; type: cell-based; conditions: 22RV1, 10 μM, 48 hours; control group 25.41 ± 5.01
Procedure: as §1
This example was a scratch assay to evaluate the inhibitory effect of the polypeptide or derivative thereof (N1-N54) on the migration ability of human prostate cancer cells (22RV1). The experimental method was as described in Example 2.

Substance	Migration rate (%) (mean ± SD, P) [1]	Migration rate (%) (mean ± SD, P) [2]	Migration rate (%) (mean ± SD, P) [3]	Weight of tumor (g) (mean ± SD) [4]	Volume of tumor (mm^3) (mean ± SD) [4]	Migration rate (%) (mean ± SD, P) [5]	Migration rate (%) (mean ± SD, P) [6]	Migration rate (%) (mean ± SD, P) [7]	Migration rate (%) (mean ± SD, P) [8]	Migration rate (%) (mean ± SD, P) [9]	Migration rate (%) (mean ± SD, P) [10]	Migration rate (%) (mean ± SD, P) [11]
N2: SEQ ID NO: 1 with deletion of one amino acid (position 18) at the carboxyl terminal (YRVRFLAKENVTQDAED)	47.79 ± 3.12,** %	36.44 ± 4.16,** %	12.42 ± 8.44,*** %	0.6 ± 0.28	1297.28 ± 359.77	13.05 ± 6.50,*** %	20.92 ± 2.16,* %	12.32 ± 2.26,** %	6.52 ± 1.25,*** %	10.71 ± 2.30,** %	23.42 ± 6.12,** %	6.48 ± 2.97,** %
N40: SEQ ID NO: 1 with deletion of positions 1-5 and 15-18, PEG at the amino terminal, two amino acids added at the carboxyl terminal ({PEG}-LAKENVTQDRC; reading uncertain)	20.15 ± 8.91,** %	36.23 ± 5.05,** %	17.00 ± 6.49,*** %	0.98 ± 0.36	997.42 ± 267.79	32.55 ± 4.09,** %	21.12 ± 4.15,* %	4.36 ± 1.35,*** %	6.47 ± 1.39,*** %	10.25 ± 2.76,** %	2.19 ± 1.45,*** %	6.65 ± 2.54,** %
N32: SEQ ID NO: 1 with deletion of positions 1-3, addition of one amino acid and PEG modification at the carboxyl terminal (RFLAKENVTQDAEDNC-{PEG}; reading uncertain)	28.06 ± 8.55,** %	29.47 ± 3.42,** %	19.47 ± 6.42,*** %	0.88 ± 0.38	1630.6 ± 424.84	15.49 ± 8.35,*** %	13.33 ± 3.83,** %	14.18 ± 2.82,** %	18.22 ± 3.95,** %	14.63 ± 4.96,* %	8.17 ± 1.07,*** %	8.68 ± 1.66,** %
N33: SEQ ID NO: 1 with deletion of positions 1-5, addition of one amino acid and PEG modification at the carboxyl terminal (LAKENVTQDAEDNC-{PEG}; reading uncertain)	33.22 ± 4.51,** %	30.73 ± 5.87,** %	40.73 ± 4.87,** %	0.57 ± 0.24	1699.23 ± 709.14	19.27 ± 8.14,*** %	22.68 ± 3.02,* %	18.97 ± 2.44,* %	9.98 ± 3.11,*** %	10.28 ± 2.06,** %	12.85 ± 3.12,*** %	10.03 ± 2.15,* %
